Results reported in PubChem BioAssay (NCI).
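Five concentrations, 48 hours, 96-well plates. The concentration for full growth arrest is given as TGI.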

Columns and labels:
Assay in all cases: NCI tumour cell line growth inhibition, 48 h
SF-268 CNS = test system: SF-268 CNS
HOP-92 NSCLC = test system: HOP-92 NSCLC
M14 melanoma = test system: M14 melanoma
A498 renal = test system: A498 renal
MDA-N = test system: MDA-N
OVCAR-5 ovarian = test system: OVCAR-5 ovarian
SF-539 CNS = test system: SF-539 CNS
ACHN renal = test system: ACHN renal
HT29 colon = test system: HT29 colon
DU-145 prostate = test system: DU-145 prostate
NCI/ADR-RES ovarian = test system: NCI/ADR-RES ovarian
KM12 colon = test system: KM12 colon
OVCAR-3 ovarian = test system: OVCAR-3 ovarian
HCT-116 colon = test system: HCT-116 colon
U251 CNS = test system: U251 CNS
OVCAR-8 ovarian = test system: OVCAR-8 ovarian
SNB-75 CNS = test system: SNB-75 CNS
EKVX NSCLC = test system: EKVX NSCLC
PC-3 prostate = test system: PC-3 prostate
TK-10 renal = test system: TK-10 renal
MDA-MB-435 = test system: MDA-MB-435
IGROV1 ovarian = test system: IGROV1 ovarian
SK-MEL-5 melanoma = test system: SK-MEL-5 melanoma
OVCAR-4 ovarian = test system: OVCAR-4 ovarian
NCI-H226 lung = test system: NCI-H226 lung
NCI-H23 lung = test system: NCI-H23 lung
SNB-19 CNS = test system: SNB-19 CNS
A549 NSCLC = test system: A549 NSCLC
HCT-15 colon = test system: HCT-15 colon
COLO 205 colon = test system: COLO 205 colon
SW-620 colon = test system: SW-620 colon
SF-295 CNS = test system: SF-295 CNS
UO-31 renal = test system: UO-31 renal
CAKI-1 renal = test system: CAKI-1 renal
SN12C renal = test system: SN12C renal
MDA-MB-231 breast = test system: MDA-MB-231 breast
RXF 393 renal = test system: RXF 393 renal
SR leukemia = test system: SR leukemia
LOX IMVI melanoma = test system: LOX IMVI melanoma
NCI-H460 lung = test system: NCI-H460 lung
SK-MEL-28 melanoma = test system: SK-MEL-28 melanoma
RPMI-8226 leukemia = test system: RPMI-8226 leukemia
MOLT-4 leukemia = test system: MOLT-4 leukemia
CCRF-CEM leukemia = test system: CCRF-CEM leukemia
SK-OV-3 ovarian = test system: SK-OV-3 ovarian
HCC-2998 colon = test system: HCC-2998 colon
UACC-257 melanoma = test system: UACC-257 melanoma
786-0 renal = test system: 786-0 renal
NCI-H522 lung = test system: NCI-H522 lung
SK-MEL-2 melanoma = test system: SK-MEL-2 melanoma
MALME-3M melanoma = test system: MALME-3M melanoma
MCF7 breast = test system: MCF7 breast
UACC-62 melanoma = test system: UACC-62 melanoma
K-562 leukemia = test system: K-562 leukemia
T-47D breast = test system: T-47D breast
HOP-62 NSCLC = test system: HOP-62 NSCLC
HL-60(TB) leukemia = test system: HL-60(TB) leukemia

Measured: TGI

CC1(C)CC(=O)C(C(CC(c2ccccc2)c2cc3c(cc2O)OCO3)C2=C(O)CC(C)(C)CC2=O)=C(O)C1 (configuration not stated)
not listed: SR leukemia | LOX IMVI melanoma | NCI-H460 lung | SK-MEL-28 melanoma | RPMI-8226 leukemia | MOLT-4 leukemia | CCRF-CEM leukemia | SK-OV-3 ovarian | HCC-2998 colon | UACC-257 melanoma | 786-0 renal | NCI-H522 lung | SK-MEL-2 melanoma | MALME-3M melanoma | MCF7 breast | UACC-62 melanoma | K-562 leukemia | T-47D breast | HOP-62 NSCLC | HL-60(TB) leukemia
> 10 µM: all other assays above

Cc1ccc(S(=O)(=O)n2c3c(c4ccccc42)CCN2C[C@H]([C@H](C)Br)CC[C@@H]32)cc1
not listed: HCT-116 colon | SN12C renal
> 100 µM: all other assays above
